Test results from PMC8241654 (Cell, 2021).

Test system: HLA class I
Type: cell-based, Human

How did the “HLA class I stabilization across alleles (in words)” value turn out when MIAQYTSAL [B7 COVID 16] was run?
Its value is “can stabilize a number of HLA class I alleles”.
